What all share (format): cell-based, human
Assay [1] has as its system Target C mRNA. Put plainly: RT-qPCR splicing assay panel, Target C canonical junction (CJ) mRNA. To be noted: Homo sapiens. A digest of the protocol: (§1)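 24 h compound exposure of A673 or K562 cells at 37 °C, 10 uM top final concentration, 3-fold steps, DMSO ≤0.25%. Splice-isoform levels determined by qPCR on cDNA from lysates, run at least in duplicate; values expressed as RQ normalized to GAPDH, GUSB or PPIA and DMSO.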

Assay [2] relates to HTT mRNA. The experiment in a line: RT-qPCR splicing assay, HTT canonical (CJ) and alternative (AJ) junction mRNA. To be noted: Homo sapiens; for AC50: read-out: HTT AJ (AC50, increase in AJ mRNA). A digest of the protocol: as §1
Assay [3] concerns MYB mRNA. Put plainly: RT-qPCR splicing assay, MYB canonical (CJ) and alternative (AJ) junction mRNA. As to conditions: Homo sapiens; for AC50: read-out: MYB AJ (AC50, increase in AJ mRNA). A digest of the protocol: as §1
Assay [4] concerns SMN2 mRNA. Put plainly: RT-qPCR splicing assay panel, SMN2 canonical junction (CJ) mRNA. As to conditions: Homo sapiens. A digest of the protocol: as §1
Background: Real-time PCR tracks product formation cycle by cycle.

Setting [5] is: canonical junction (CJ) mRNA, RT-qPCR panel, Table 4A, read-out: Target C, decrease in CJ mRNA levels, IC50.
Where [6] appears, read: 24 h, Table 3A, A673 or K562 cells, 24 h treatment.
Where [7] appears, read: 24 h, Table 3A, A673 or K562 cells, 24 h treatment, read-out: HTT CJ (IC50, decrease in CJ mRNA).
[8] abbreviates: canonical junction (CJ) mRNA, RT-qPCR panel, Table 4A, read-out: HTT, decrease in CJ mRNA levels, IC50.
Where [9] appears, read: 24 h, Table 3A, A673 or K562 cells, 24 h treatment, read-out: MYB CJ (IC50, decrease in CJ mRNA).
Where [10] appears, read: canonical junction (CJ) mRNA, RT-qPCR panel, Table 4A, read-out: MYB, decrease in CJ mRNA levels, IC50.
[11] abbreviates: canonical junction (CJ) mRNA, RT-qPCR panel, Table 4A, read-out: SMN2, decrease in CJ mRNA levels, IC50.
The mark [12] stands for this setting: 24 h, Table 3B, A673 or K562 cells, 24 h treatment.

Structures are written as SMILES. Like-named read-outs stand apart in the source and are kept apart here. Where only a bound is given, the exact number is not on record here.

For the compound `Cc1ccc(-c2ccc(-c3ccc(N4CC[C@H](NC5CCC5)C4)nn3)c(O)c2)cn1` [Compound 281], the IC50 (usually the concentration needed to halve the response being measured) in assay [1] (setting [5]) was 1 to 10 µM; in assay [2] (setting [7]) it was 0.1 to 1 µM; in assay [2] (setting [8]), 0.1 to 1 µM; in assay [3] (setting [9]), 1 to 10 µM; in assay [3] (setting [10]), 1 to 10 µM; in assay [4] (setting [11]) it was less than 0.1 µM. The AC50 – broadly, the midpoint of the concentration-response curve, whichever way the signal moves – in assay [2] (setting [6]) was in the range of 0.1 to 1 µM; in assay [3] (setting [6]), 1 to 10 µM.
As to `Cc1ncc(-c2cc(O)c(-c3ccc(N4CC[C@@H](N(C)C5CCC5)C4)nn3)cc2F)s1` [Compound 269], the IC50 in assay [1] (setting [5]), in assay [2] (setting [7]), in assay [2] (setting [8]), in assay [3] (setting [9]), in assay [3] (setting [10]) and in assay [4] (setting [11]) was less than 0.1 µM each time. In addition, the AC50 in assay [2] (setting [6]) was less than 0.1 µM; in assay [3] (setting [6]), 0.1 to 1 µM.
Consider `CCc1ncc(-c2cc(O)c(-c3ccc(N4CCC(NC5CCC5)C4)nn3)cc2F)s1` (stereo not shown) [Compound 442], for which the IC50 in assay [1] (setting [5]) is greater than 10 µM; in assay [2] (setting [7]) it was greater than 10 µM; in assay [2] (setting [8]), greater than 10 µM; in assay [3] (setting [9]) it was greater than 10 µM; in assay [3] (setting [10]), greater than 10 µM; in assay [4] (setting [11]) it was 1 to 10 µM. In addition, the AC50 in assay [2] (setting [6]) was 1 to 10 µM; in assay [3] (setting [6]) it was greater than 10 µM.
For the compound `COc1nc(-c2cnc(N3CCC(NC(C)(C)C)C3)nn2)ccc1-c1cnc(C)s1` (stereo not shown) [Compound 422], the IC50 in assay [1] (setting [5]) is 0.1 to 1 µM; in assay [2] (setting [7]) it was less than 0.1 µM; in assay [2] (setting [8]), less than 0.1 µM; in assay [3] (setting [9]), 0.1 to 1 µM; in assay [3] (setting [10]) it was 0.1 to 1 µM; in assay [4] (setting [11]), less than 0.1 µM. Besides, the results for the AC50 in assay [2] (setting [6]) and in assay [3] (setting [6]) were less than 0.1 µM and 0.1 to 1 µM, respectively.
As for `Cc1nc2cc(O)c(-c3ccc(N4CC[C@@H](N(C)C(C)(C)C)C4)nn3)cc2o1` [Compound 859], the half-maximal inhibitory concentration (IC50) in assay [1] (Table 4B, gene panel, read-out: Target C (IC50, decrease in CJ mRNA levels)) was 1 to 10 µM; in assay [2] (24 h, Table 3B, A673 or K562 cells, 24 h treatment, read-out: HTT CJ (IC50, decrease in CJ mRNA)), 1 to 10 µM; in assay [2] (Table 4B, gene panel, read-out: HTT (IC50, decrease in CJ mRNA levels)) it was 1 to 10 µM; in assay [3] (24 h, Table 3B, A673 or K562 cells, 24 h treatment, read-out: MYB CJ (IC50, decrease in CJ mRNA)), 1 to 10 µM; in assay [3] (Table 4B, gene panel, read-out: MYB (IC50, decrease in CJ mRNA levels)) it was 1 to 10 µM; in assay [4] (Table 4B, gene panel, read-out: SMN2 (IC50, decrease in CJ mRNA levels)) it was less than 0.1 µM. Moreover, the AC50 in assay [2] (setting [12]) and in assay [3] (setting [12]) was 1 to 10 µM throughout.
Take `COc1cc(-c2ccc(-c3ccc(N4CCC(NC56CC(C5)C6)C4)nn3)c(O)c2)cnn1` (stereo not shown) [Compound 335, 2-[6-(3-{bicyclo[1.1.1]pentan-1-ylamino}pyrrolidin-1-yl)pyridazin-3-yl]-5-(6-methoxypyridazin-4-yl)phenol]: the IC50 in assay [1] (setting [5]) is 0.1 to 1 µM; in assay [2] (setting [7]) it was less than 0.1 µM; in assay [2] (setting [8]) it was less than 0.1 µM; in assay [3] (setting [9]), 0.1 to 1 µM; in assay [3] (setting [10]), 0.1 to 1 µM; in assay [4] (setting [11]) it was 0.1 to 1 µM. The figures for the half-maximal activity concentration (AC50) in assay [2] (setting [6]) and in assay [3] (setting [6]) were 0.1 to 1 µM and 1 to 10 µM, respectively.
On to `CN(C1CCN(c2ccc(-c3cc(F)c(-c4cn[nH]c4)cc3O)nn2)C1)C(C)(C)C` (stereo in doubt) [Compound 120, 2-{6-[(3R)-3-[tert-butyl(methyl)amino]pyrrolidin-1-yl]pyridazin-3-yl}-4-fluoro-5-(1H-pyrazol-4-yl)phenol], for which the IC50 in assay [1] (setting [5]), in assay [2] (setting [7]), in assay [2] (setting [8]), in assay [3] (setting [9]), in assay [3] (setting [10]) and in assay [4] (setting [11]) was less than 0.1 µM in each case. In addition, the AC50 in assay [2] (setting [6]) and in assay [3] (setting [6]) was less than 0.1 µM throughout.
Consider `Cc1nc(C)c(-c2cc(O)c(-c3ccc(N4CC[C@H](NC5CCC5)C4)nn3)cc2F)s1` [Compound 386], for which the IC50 lay within 1 to 10 µM in assay [1] (setting [5]); 0.1 to 1 µM in assay [2] (setting [7]); 0.1 to 1 µM in assay [2] (setting [8]); 1 to 10 µM in assay [3] (setting [9]); 1 to 10 µM in assay [3] (setting [10]); 0.1 to 1 µM in assay [4] (setting [11]). The AC50 in assay [2] (setting [6]) and in assay [3] (setting [6]) was 1 to 10 µM throughout.

The record behind these values is patent US20250333397A1 (REMIX THERAPEUTICS INC., priority 2021, published 2025).
